From ChEMBL document CHEMBL1201862, “PubChem BioAssay data set” (2004)
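Method: 48-hour compound exposure of cells in 96-well plates, five concentrations, linear interpolation of endpoints. GI50 marks 50% less growth.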 Activity calls are given as the source filed them. No stated cut-off is given here; in the data, active = GI50 up to about 1.1 µM and inactive = higher.

How the values were obtained:
Experiment in all cases: NCI tumour cell line growth inhibition, 48 h
OVCAR-5 = tested on: OVCAR-5
SR = tested on: SR
LOX IMVI = tested on: LOX IMVI
HCT-116 = tested on: HCT-116
CCRF-CEM = tested on: CCRF-CEM
OVCAR-4 = tested on: OVCAR-4
SN12C = tested on: SN12C
A549 = tested on: A549
M14 = tested on: M14
NCI-H226 = tested on: NCI-H226
IGROV-1 = tested on: IGROV-1
A498 = tested on: A498
NCI/ADR-RES = tested on: NCI/ADR-RES
NCI-H522 = tested on: NCI-H522
NCI-H23 = tested on: NCI-H23
KM12 = tested on: KM12
OVCAR-8 = tested on: OVCAR-8
SF-268 = tested on: SF-268
Hs-578T = tested on: Hs-578T

SMILES	GI50 (OVCAR-5)	GI50 (SR)	GI50 (LOX IMVI)	GI50 (HCT-116)	GI50 (CCRF-CEM)	GI50 (OVCAR-4)	GI50 (SN12C)	GI50 (A549)	GI50 (M14)	GI50 (NCI-H226)	GI50 (IGROV-1)	GI50 (A498)	GI50 (NCI/ADR-RES)	GI50 (NCI-H522)	GI50 (NCI-H23)	GI50 (KM12)	GI50 (OVCAR-8)	GI50 (SF-268)	GI50 (Hs-578T)
COc1nc2c(c(=O)n1C)N=C(c1ccccc1)[C@H](C(CC(=O)c1ccccc1)c1ccccc1)C(c1ccccc1)N2 (stereo partly specified)	> 100 µM (inactive)	78 µM (inactive)	> 100 µM (inactive)	88.1 µM (inactive)	> 100 µM (inactive)	20.1 µM (inactive)	44.7 µM (inactive)	32.3 µM (inactive)	> 100 µM (inactive)	69.2 µM (inactive)	49.3 µM (inactive)	> 100 µM (inactive)	39.6 µM (inactive)	25.9 µM (inactive)	> 100 µM (inactive)	30.8 µM (inactive)	54.5 µM (inactive)		
O=C1CC(NC(=O)C(F)(F)F)c2c(Br)sc(N3CCNCC3)c21 (stereo unspecified)	> 100 µM (inactive)		> 100 µM (inactive)	> 100 µM (inactive)	> 100 µM (inactive)	> 100 µM (inactive)	> 100 µM (inactive)	> 100 µM (inactive)	> 100 µM (inactive)	> 100 µM (inactive)	> 100 µM (inactive)	> 100 µM (inactive)	> 100 µM (inactive)	> 100 µM (inactive)	> 100 µM (inactive)	> 100 µM (inactive)	> 100 µM (inactive)	> 100 µM (inactive)	> 100 µM (inactive)
O=C(OCC(Cl)(Cl)Cl)N1CC[C@H](C2CCCCC2)C1	18.9 µM (inactive)	16.3 µM (inactive)	19.5 µM (inactive)	14.6 µM (inactive)	15.5 µM (inactive)	16.6 µM (inactive)	37.2 µM (inactive)	14.9 µM (inactive)	20.7 µM (inactive)		16.4 µM (inactive)		15 µM (inactive)	17.1 µM (inactive)	15.3 µM (inactive)	17.3 µM (inactive)		21 µM (inactive)	
NC(=S)N1N=C(c2ccccc2O)CC1c1ccccc1 (stereo unspecified)	17.9 µM (inactive)		16.9 µM (inactive)	12.8 µM (inactive)	7.94 µM (inactive)	18.2 µM (inactive)	13.8 µM (inactive)	16 µM (inactive)	11.3 µM (inactive)	15 µM (inactive)	11.4 µM (inactive)	11.9 µM (inactive)	6.35 µM (inactive)	3.99 µM (inactive)	18.5 µM (inactive)	7.4 µM (inactive)	25.5 µM (inactive)	20.8 µM (inactive)	20.7 µM (inactive)
CCN(CC)CCC1CCCCN1CC(=O)N1c2cc(Cl)ccc2NC(=O)CC1C (stereo unspecified)	> 100 µM (inactive)		> 100 µM (inactive)	> 100 µM (inactive)	> 100 µM (inactive)	> 100 µM (inactive)	> 100 µM (inactive)	> 100 µM (inactive)	> 100 µM (inactive)	> 100 µM (inactive)	> 100 µM (inactive)	> 100 µM (inactive)		> 100 µM (inactive)	> 100 µM (inactive)	> 100 µM (inactive)	> 100 µM (inactive)	> 100 µM (inactive)	> 100 µM (inactive)
CS(=O)(=O)OCOS(C)(=O)=O	> 100 µM (inactive)	20.2 µM (inactive)	43.8 µM (inactive)	> 100 µM (inactive)	18.5 µM (inactive)	> 100 µM (inactive)	> 100 µM (inactive)	> 100 µM (inactive)	> 100 µM (inactive)	40.6 µM (inactive)	> 100 µM (inactive)	> 100 µM (inactive)	> 100 µM (inactive)		69 µM (inactive)	> 100 µM (inactive)	> 100 µM (inactive)		
Cc1ccc2c(c1)[nH]c(=S)n2C=C(C(N)=O)C(N)=O	> 100 µM (inactive)		> 100 µM (inactive)	> 100 µM (inactive)		> 100 µM (inactive)	> 100 µM (inactive)	> 100 µM (inactive)	> 100 µM (inactive)	> 100 µM (inactive)	> 100 µM (inactive)	> 100 µM (inactive)	> 100 µM (inactive)		> 100 µM (inactive)	> 100 µM (inactive)	> 100 µM (inactive)	> 100 µM (inactive)	
CC(C)(C)NC1C2CCC(C)(C1O)C2(C)C (stereo unspecified)	> 100 µM (inactive)	> 100 µM (inactive)	> 100 µM (inactive)	> 100 µM (inactive)		> 100 µM (inactive)		> 100 µM (inactive)	> 100 µM (inactive)		> 100 µM (inactive)	2.35 µM (inactive)	> 100 µM (inactive)		> 100 µM (inactive)	> 100 µM (inactive)	> 100 µM (inactive)	> 100 µM (inactive)	
COc1cc2cc(C(=O)N3CC(CCl)c4c3cc(NC(=O)C(C)Nc3c([N+](=O)[O-])cc(C(=O)NCCN(C)C)cc3[N+](=O)[O-])c3ccccc43)[nH]c2c(OC)c1OC (stereo unspecified)	0.0555 µM (active)		0.0478 µM (active)	0.0743 µM (active)	< 0.01 µM (active)	0.191 µM (active)	0.105 µM (active)	0.0682 µM (active)	0.187 µM (active)	0.113 µM (active)	0.12 µM (active)	0.212 µM (active)	0.441 µM (active)	0.0172 µM (active)	< 0.01 µM (active)	0.119 µM (active)	0.132 µM (active)	0.0202 µM (active)	
COc1cc(CNC2=NCCC2)cc(OC)c1OC	> 100 µM (inactive)			39.6 µM (inactive)	> 100 µM (inactive)	> 100 µM (inactive)	> 100 µM (inactive)	> 100 µM (inactive)	> 100 µM (inactive)	> 100 µM (inactive)	> 100 µM (inactive)		> 100 µM (inactive)	> 100 µM (inactive)	> 100 µM (inactive)	> 10 µM (inactive)	> 100 µM (inactive)	> 100 µM (inactive)	
CS/C(=N/S(=O)(=O)c1ccc(Cl)cc1)NCCCN/C(=N\S(=O)(=O)c1ccc(Cl)cc1)SC	25.2 µM (inactive)	4.34 µM (inactive)	14 µM (inactive)	21.6 µM (inactive)	16.7 µM (inactive)	3.56 µM (inactive)	5.08 µM (inactive)		15.4 µM (inactive)		30.4 µM (inactive)	8.43 µM (inactive)	12.9 µM (inactive)				19.8 µM (inactive)	9.48 µM (inactive)	
Cc1cc(Cc2c(F)c(F)c(Cc3cc(C)no3)c(F)c2F)on1	> 100 µM (inactive)		80.4 µM (inactive)	> 100 µM (inactive)	> 100 µM (inactive)	> 100 µM (inactive)	> 100 µM (inactive)	12.9 µM (inactive)	> 100 µM (inactive)	> 100 µM (inactive)	> 100 µM (inactive)	> 100 µM (inactive)	> 100 µM (inactive)	> 100 µM (inactive)	65.8 µM (inactive)		83.9 µM (inactive)	21.7 µM (inactive)	29.9 µM (inactive)
Nc1ncnc2c1ncn2-c1ccc([N+](=O)[O-])cn1	> 100 µM (inactive)		> 100 µM (inactive)	> 100 µM (inactive)	> 100 µM (inactive)	> 100 µM (inactive)	> 100 µM (inactive)	> 100 µM (inactive)	> 100 µM (inactive)	> 100 µM (inactive)		> 100 µM (inactive)	> 100 µM (inactive)		> 100 µM (inactive)	> 100 µM (inactive)	> 100 µM (inactive)	> 100 µM (inactive)	61.9 µM (inactive)
O=C1C=C/C(=N\N=C(c2ccccc2)c2ccccc2)O1		> 10 µM (inactive)	> 10 µM (inactive)		8.49 µM (inactive)	> 10 µM (inactive)	> 10 µM (inactive)	> 10 µM (inactive)	> 10 µM (inactive)		> 10 µM (inactive)				> 10 µM (inactive)	> 10 µM (inactive)	> 10 µM (inactive)	> 10 µM (inactive)	
Cc1ccc(-c2c(C#N)c(-c3ccccc3)n(NS(=O)(=O)c3ccccc3)c(=O)c2C#N)cc1	> 100 µM (inactive)		51.1 µM (inactive)	74.5 µM (inactive)	32.1 µM (inactive)	> 100 µM (inactive)	> 100 µM (inactive)	> 100 µM (inactive)	93.3 µM (inactive)	> 100 µM (inactive)	40.6 µM (inactive)	> 100 µM (inactive)	63.5 µM (inactive)	88.1 µM (inactive)		89.3 µM (inactive)	> 100 µM (inactive)	63.1 µM (inactive)	
ClCCCC1COc2ccccc2O1 (stereo unspecified)	55.8 µM (inactive)	> 100 µM (inactive)		45.7 µM (inactive)	> 100 µM (inactive)	> 100 µM (inactive)	> 100 µM (inactive)	> 100 µM (inactive)	> 100 µM (inactive)	> 100 µM (inactive)	46.3 µM (inactive)		> 100 µM (inactive)	> 100 µM (inactive)	> 10 µM (inactive)		> 100 µM (inactive)	96.6 µM (inactive)	
CSc1[nH]nc(N)c1C(=O)Nc1ccc(C)cc1	54.7 µM (inactive)	30.6 µM (inactive)	38.6 µM (inactive)	75.2 µM (inactive)	26.1 µM (inactive)	46.2 µM (inactive)	96.4 µM (inactive)	51.6 µM (inactive)	83.9 µM (inactive)	> 100 µM (inactive)		18.7 µM (inactive)		26.7 µM (inactive)	61.1 µM (inactive)			47.5 µM (inactive)	> 100 µM (inactive)
